The record followed here is patent publication US20250206758A1, “SUBSTITUTED BRIDGED RING INHIBITOR, PREPARATION METHOD THEREFOR AND APPLICATION THEREOF” (SUZHOU ZELGEN BIOPHARMACEUTICALS CO., LTD., priority 2022, published 2025).

Counter-ions that a name gives are not always drawn. Like-named read-outs stand apart in the source and are kept apart here.

The test system of one experiment is AsPC-1. Description: Cell proliferation inhibition, AsPC-1 (CellTiter-Glo 3D, 7 days). It is filed as cell-based. The note with it: AsPC-1, 7 days. The method, then:
(§1) • (a) Resuscitating cells in T75 cell culture flask: • (b) When the cell confluence reaches 80-90%, subculturing the cells.
(§2) The diluted test compound was added to a 384-well cell culture plate with a nanoliter pipetting system, and duplicate wells were set up. An equal volume of culture medium was added to the positive control group; and an equal volume of DMSO was added to the negative control group, then centrifugation was conducted at 1000 rpm for 1 min at room temperature.
(§3) Cells were inoculated into a) 384-well culture plate, with an equal volume of cells added to the negative control group, and only an equal volume of culture medium added to the positive control group. The plate was centrifuged at 1000 rpm for 1 min at room temperature, and the final DMSO concentration of the compound was 0.5% at last. The plate was placed in a 37° C., 5% CO2 constant temperature incubator for 7 days.
(§4) 20 μL/well of CellTiter-Glo® 3D to b) was added to 384-well cell culture plate, and the plate was shook at 320 rpm for 20 min in the dark, and incubated at room temperature in the dark for 2 hrs.
(§5) The luminescence value was read using an Envision multi-functional microplate reader.
(§6) The inhibition rate (IR) of the test compound was calculated using the following formula: IR (%)=(1−(RLU compound−RLU blank control)/(RLU meidum control−RLU blank control))*100%. The inhibition rates of different concentrations of compounds were calculated in Excel, and then the inhibition curves were plotted and the related parameters (including the minimum inhibition rate, maximum inhibition rate and IC50) were calculated using GraphPad Prism software.
For orientation: ATP-based viability assays read luminescence as a measure of living cells.

A further experiment relates to GP2D. Description: Cell proliferation inhibition, GP2D (CellTiter-Glo 3D, 7 days). It is filed as cell-based. The method, then: as §1, §2, §3, §4, §5, §6

By IC50 is commonly meant the midpoint of a concentration-inhibition curve. Lower therefore signals greater potency.

As to `C#Cc1c(F)ccc2cc(O)cc(-c3ncc4c(N5C[C@H]6CC[C@@H](C5)N6)nc(OC[C@]56CCC7(CC7)N5C[C@@H](F)C6)nc4c3F)c12` (relative stereo) [Example 12A, 4-(4-((1R,5S)-3,8-diazabicyclo[3.2.1]octan-3-yl)-8-fluoro-2-(((trans)-6′-fluorotetrahydrospiro[cyclopropan-1,3′-pyrrolizin]-7a′(5′H)-yl)methoxy)pyridino[4,3-d]pyrimidin-7-yl)-5-ethynyl-6-fluoronaphthalen-2-ol], the IC50 in the experiment with AsPC-1 (Homo sapiens, ASPC1, 168 h) was determined as 24.8 nM; in the experiment on GP2D (168 h), 3.07 nM.

On to `C#Cc1c(F)ccc2cc(O)cc(-c3ncc4c(N5C[C@H]6CC[C@@H](C5)N6)nc(OC[C@@]56CCC7(CC7)N5C[C@@H](F)C6)nc4c3F)c12` (relative stereo) [Example 12B, 4-(4-((1R,5S)-3,8-diazabicyclo[3.2.1]octan-3-yl)-8-fluoro-2-(((cis)-6′-fluorotetrahydrospiro[cyclopropan-1,3′-pyrrolizin]-7a′(5′H)-yl)methoxy)pyridino[4,3-d]pyrimidin-7-yl)-5-ethynyl-6-fluoronaphthalen-2-ol], for which the IC50 was found to be 390 nM in the experiment with AsPC-1 (Homo sapiens, ASPC1, 168 h) and 29.6 nM in the experiment on GP2D (168 h).

In the case of `C#Cc1c(F)ccc2cc(O)cc(-c3ncc4c(N5C[C@H]6CC[C@@H](C5)N6)nc(OC[C@]56C[C@@H](F)CN5CC5(CC5)C6)nc4c3F)c12` [Example 10A, 4-(4-((1R,5S)-3,8-diazabicyclo[3.2.1]octan-3-yl)-8-fluoro-2-(((6′R,7a'S)-6′-fluorodihydro-1′H,3′H-spiro[cyclopropan-1,2′-pyrrolizin]-7a′(5′H)-yl)methoxy)pyridino[4,3-d]pyrimidin-7-yl)-5-ethynyl-6-fluoronaphthalen-2-ol], the IC50 in the experiment with AsPC-1 (Homo sapiens, ASPC1, 168 h) came out at 23.5 nM; in the experiment with GP2D (168 h) it was 1.07 nM.

In the case of `C#Cc1c(F)ccc2cc(O)cc(-c3ncc4c(N5C[C@H]6CC[C@@H](C5)N6)nc(OC[C@@]56C[C@@H](F)CN5CC5(CC5)C6)nc4c3F)c12` [Example 10B, 4-(4-((1R,5S)-3,8-diazabicyclo[3.2.1]octan-3-yl)-8-fluoro-2-(((6′R,7a′R)-6′-fluorodihydro-1′H,3′H-spiro[cyclopropan-1,2′-pyrrolizin]-7a′(5′H)-yl)methoxy)pyridino[4,3-d]pyrimidin-7-yl)-5-ethynyl-6-fluoronaphthalen-2-ol], the IC50 in the experiment on AsPC-1 (Homo sapiens, ASPC1, 168 h) was found to be 17.3 nM; in the experiment with GP2D (168 h), 0.51 nM.

`C#Cc1c(F)ccc2cc(O)cc(-c3ncc4c(N5CC6CCC(C5)N6)nc(OCC56CCCN5C5(CC5)CC6)nc4c3F)c12` [Example 11, 4-(4-((1R,5S)-3,8-diazabicyclo[3.2.1]octan-3-yl)-8-fluoro-2-((tetrahydrospiro[cyclopropan-1,3′-pyrrolizin]-7a′(5′H)-yl)methoxy)pyridino[4,3d]pyrimidin-7-yl)-5-ethynyl-6-fluoronaphthalen-2-ol]: the IC50 in the experiment on AsPC-1 (Homo sapiens, ASPC1, 168 h) stood at 38.2 nM; in the experiment on GP2D (168 h), 3.01 nM.

Consider `C#Cc1c(F)ccc2cc(O)cc(-c3ncc4c(N5CC6CCC(C5)N6)nc(OCC56CC(F)(F)CCN5CC5(CC5)C6)nc4c3F)c12` [Example 13, 4-(4-((1R,5S)-3,8-diazabicyclo[3.2.1]octan-3-yl)-2-((7′,7′-difluorotetrahydro-3′-H-spiro[cyclopropan-1,2′-pyrrolizin]-8a′(1′H)-yl)methoxy)-8-fluoropyridino[4,3d]pyrimidin-7-yl)-5-ethynyl-6-fluoronaphthalen-2-ol trifluoroacetate], for which the IC50 in the experiment with AsPC-1 (Homo sapiens, ASPC1, 168 h) was found to be 210 nM; in the experiment on GP2D (168 h) it was 42.8 nM.

Take `C#Cc1c(F)ccc2cc(O)cc(-c3ncc4c(N5C[C@H]6CC[C@@H](C5)N6)nc(OCC56CC(F)(F)CN5CC5(CC5)C6)nc4c3F)c12` (stereo partly drawn) [Example 14, 4-(4-((1R,5S)-3,8-diazabicyclo[3.2.1]octan-3-yl)-2-((6′,6′-difluorotetrahydro-3′-H-spiro[cyclopropan-1,2′-pyrrolizin]-8a′(1′H)-yl)methoxy)-8-fluoropyridino[4,3d]pyrimidin-7-yl)-5-ethynyl-6-fluoronaphthalen-2-ol]: the IC50 in the experiment with AsPC-1 is 921 nM; in the experiment on GP2D, > 100 nM.

On to `C#Cc1c(F)ccc2cc(O)cc(-c3ncc4c(N5C[C@H]6CC[C@@H](C5)N6)nc(OC[C@]56C[C@@H](F)CN5C[C@@]5(CC5(F)F)C6)nc4c3F)c12` [Example 15A, 4-(4-((1R,5S)-3,8-diazabicyclo[3.2.1]octan-3-yl)-8-fluoro-2-(((1S,6′R,7a'S)-2,2,6′-trifluorodihydro-1′H,3′H-spiro[cyclopropan-1,2′-pyrrolizin]-7a′(5′H)-yl)methoxy)pyridino[4,3-d]pyrimidin-7-yl)-5-ethynyl-6-fluoronaphthalen-2-ol], for which the IC50 with AsPC-1 (Homo sapiens, ASPC1, 168 h) was 108 nM; with GP2D (168 h), 13.1 nM.

Regarding `C#Cc1c(F)ccc2cc(O)cc(-c3ncc4c(N5C[C@H]6CC[C@@H](C5)N6)nc(OC[C@]56C[C@@H](F)CN5C[C@]5(CC5(F)F)C6)nc4c3F)c12` [Example 15B, 4-(4-((1R,5S)-3,8-diazabicyclo[3.2.1]octan-3-yl)-8-fluoro-2-(((1R,6′R,7a'S)-2,2,6′-trifluorodihydro-1′H,3′H-spiro[cyclopropan-1,2′-pyrrolizin]-7a′(5′H)-yl)methoxy)pyridino[4,3-d]pyrimidin-7-yl)-5-ethynyl-6-fluoronaphthalen-2-ol], the IC50 in the experiment with AsPC-1 (Homo sapiens, ASPC1, 168 h) is 50.8 nM; in the experiment with GP2D (168 h), 7.35 nM.

Regarding `C#Cc1c(F)ccc2cc(O)cc(-c3ncc4c(N5C[C@H]6CC[C@@H](C5)N6)nc(OC[C@@]56C[C@@H](F)CN5C[C@@]5(CC5(F)F)C6)nc4c3F)c12` [Example 15C, 4-(4-((1R,5S)-3,8-diazabicyclo[3.2.1]octan-3-yl)-8-fluoro-2-(((1S,6′R,7a′R)-2,2,6′-trifluorodihydro-1′H,3′H-spiro[cyclopropan-1,2′-pyrrolizin]-7a′(5′H)-yl)methoxy)pyridino[4,3-d]pyrimidin-7-yl)-5-ethynyl-6-fluoronaphthalen-2-ol], the IC50 turned out to be 60.6 nM in the experiment with AsPC-1 (Homo sapiens, ASPC1, 168 h) and 12.1 nM with GP2D (168 h).

For the compound `C#Cc1c(F)ccc2cc(O)cc(-c3ncc4c(N5C[C@H]6CC[C@@H](C5)N6)nc(OC[C@@]56C[C@@H](F)CN5C[C@]5(CC5(F)F)C6)nc4c3F)c12` [Example 15D, 4-(4-((1R,5S)-3,8-diazabicyclo[3.2.1]octan-3-yl)-8-fluoro-2-(((1R,6′R,7a′R)-2,2,6′-trifluorodihydro-1′H,3′H-spiro[cyclopropan-1,2′-pyrrolizin]-7a′(5′H)-yl)methoxy)pyridino[4,3-d]pyrimidin-7-yl)-5-ethynyl-6-fluoronaphthalen-2-ol], the IC50 was found to be 177 nM with AsPC-1 (Homo sapiens, ASPC1, 168 h) and 44.5 nM in the experiment on GP2D (168 h).

With `C#Cc1c(F)ccc2cc(O)cc(-c3ncc4c(N5C[C@H]6CC[C@@H](C5)N6)nc(OC[C@]56C[C@H](F)CN5C[C@@]5(CC5(F)F)C6)nc4c3F)c12` [Example 15E, 4-(4-((1R,5S)-3,8-diazabicyclo[3.2.1]octan-3-yl)-8-fluoro-2-(((1S,6'S,7a'S)-2,2,6′-trifluorodihydro-1′H,3′H-spiro[cyclopropan-1,2′-pyrrolizin]-7a′(5′H)-yl)methoxy)pyridino[4,3-d]pyrimidin-7-yl)-5-ethynyl-6-fluoronaphthalen-2-ol], the IC50 in the experiment with AsPC-1 (Homo sapiens, ASPC1, 168 h) was 314 nM; in the experiment on GP2D (168 h), 32.2 nM.
